Source: patent US20090209541A1, “APREPITANT COMPOSITIONS” (Dr. Reddy's Laboratories Ltd., priority 2006, published 2009)
≈ marks a conversion by molar mass, not a printed value. Values belong to the compound of their own block, whether it stands above or below them.

Legend:
[1] = U.S. Pat. Nos. 6,096,742 and 6,583,142; cited from earlier work
[2] = cited from earlier work
[3] = cited from earlier work; remark: listed apart in the source
[4] = Solubility of powder compositions of aprepitant at 25° C. in water (HPLC method); assay type: physicochemical; conditions: thermodynamic from solid
Procedure: Solubility of Powder Compositions of Aprepitant at 25° C. in Water
• A. Aprepitant: Neat aprepitant was passed through a BSS # 80 mesh sieve, and its solubility in water was determined using a HPLC method. • B. Aprepitant: PVP K30 (1:1 w/w) solid dispersion: 2 g aprepitant and 2 g PVP K 30 were dissolved in a mixture of 200 ml dichloromethane and 20 ml methanol. This solution was dried in a rotary flash evaporator at 50° C. The dried solid dispersion was passed through a BSS # 80 mesh sieve. • C. Premix of A and B (1:6 w/w): Neat aprepitant and solid dispersion from B was mixed in the weight proportions of 1:6. This mixture was passed through a BSS # 80 mesh sieve. • D. Premix of A and B (1:2 w/w): Neat aprepitant and solid dispersion from B was mixed in the weight proportions of 1:2. This mixture was passed through a BSS # 80 mesh sieve. • E. Premix of A and B (3:2 w/w): Neat aprepitant and solid dispersion from B was mixed in the weight proportions of 3:2. This mixture was passed through a BSS # 80 mesh sieve. • F. Aprepitant: Polysorbate 80 (1:1 w/w): 1 g aprepitant and 1 g polysorbate 80 were mixed together by trituration. […]
Injected blank once, standard solution, all sample preparations in different pH solutions each twice into the chromatographic system. Aprepitant solubility in mg/ml was calculated using following formula: […]

SMILES: C[C@@H](O[C@H]1OCCN(Cc2n[nH]c(=O)[nH]2)[C@H]1c1ccc(F)cc1)c1cc(C(F)(F)F)cc(C(F)(F)F)c1 [Form I, aprepitant]
solubility relative to Form II [1]: lower solubility as compared to Form II | thermodynamic stability relative to Form II [1]: thermodynamically more stable than Form II

SMILES: C[C@@H](O[C@H]1OCCN(Cc2n[nH]c(=O)[nH]2)[C@H]1c1ccc(F)cc1)c1cc(C(F)(F)F)cc(C(F)(F)F)c1 [Aprepitant, 5-[[(2R,3S)-2-[(1R)-1-[3,5-bis(trifluoromethyl)phenyl]ethoxy]-3-(4-fluorophenyl)-4-morpholinyl]methyl]-1,2-dihydro-3H-1,2,4-triazol-3-one]
permeability characteristics [2]: poor permeability | solubility in acetonitrile (descriptive) ([3]; acetonitrile): slightly soluble | solubility in ethanol (descriptive) ([3]; ethanol): sparingly soluble | solubility in isopropyl acetate (descriptive) ([3]; isopropyl acetate): sparingly soluble | solubility in water (descriptive) ([3]; water): practically insoluble

solubility [4]: 0.5 µg/mL (≈ 0.936 µM)
SMILES: C[C@@H](O[C@H]1OCCN(Cc2n[nH]c(=O)[nH]2)[C@H]1c1ccc(F)cc1)c1cc(C(F)(F)F)cc(C(F)(F)F)c1 [A, Aprepitant]
